Data taken from article PMC11232110 (RSC Advances, 2024).

Molecular target: enoyl acyl carrier protein reductase (InhA) (Mycobacterium tuberculosis, UniProt P9WGR1)
Assay: InhA enzyme inhibition assay
Type: biochemical

Sequence of enoyl acyl carrier protein reductase (InhA) (P9WGR1 whole entry, looked up): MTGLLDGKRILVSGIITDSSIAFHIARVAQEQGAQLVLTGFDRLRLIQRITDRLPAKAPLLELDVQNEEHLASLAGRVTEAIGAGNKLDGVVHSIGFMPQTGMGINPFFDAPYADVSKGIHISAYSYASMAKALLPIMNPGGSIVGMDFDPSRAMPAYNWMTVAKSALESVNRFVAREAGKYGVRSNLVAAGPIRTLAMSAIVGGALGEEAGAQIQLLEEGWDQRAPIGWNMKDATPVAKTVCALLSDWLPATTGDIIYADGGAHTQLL

Q: Which IC50 does the source give for `O=c1cc(-c2ccccc2)c2cc(Cl)c(OCc3nnn(CCN4CCOCC4)n3)cc2o1` [4c, 7-((2-(2-Morpholinoethyl)-2H-tetrazol-5-yl)methoxy)-6-chloro-4-phenyl-2H-chromen-2-one] here?
A: Its IC50 is 0.565 ± 0.02 µM.
